Patent publication US9018208B2, “Heterocycles as potassium channel modulators” (Icagen Inc., priority 2007, dated 2015)

Each compound was assayed on SH-SY5Y M-currents (KCNQ2, KCNQ3 and KCNQ5) (assay: SH-SY5Y native cell line FLIPR assay (voltage-sensitive dye DiBAC)). Conditions: FLIPR assay, SH-SY5Y native cell line; Table 2; read-out: SH-SY5Y EC50.
Assay type: cell-based, mouse neuroblastoma, rat glioma hybrid cell line
In short: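 Response is peak DiBAC fluorescence change, normalised to the maximum from a positive control agent, sampled every 30 s over 25 min. Before compound addition, SH-SY5Y cells differentiated with PGE1 plus isomethylbutylxanthine were dye-loaded for 1 h in EBSS with […] DiBAC.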

Compound	EC50
COc1ccc2nc(NC(=O)CC(C)(C)C)c(-c3cccc(OC(F)(F)F)c3)n2n1 [Compound 346, N-(6-methoxy-3-(3-(trifluoromethoxy)phenyl)imidazo[1,2-b]pyridazin-2-yl)-3,3-dimethylbutanamide]	< 500 nM

Same assay, conditions: SH-SY5Y native cell line, FLIPR assay (Table 3); read-out: SH-SY5Y EC50

Compound	EC50
CC(C)(C)CC(=O)Nc1nc2ccc(F)cn2c1-c1ccccn1 [Compound 347, N-(6-fluoro-3-(pyridin-2-yl)imidazo[1,2-a]pyridin-2-yl)-3,3-dimethylbutanamide]	3000 to 10000 nM
CC(C)(C)CC(=O)Nc1nc2ccc(F)cn2c1-c1cccnc1 [Compound 348, N-(6-fluoro-3-(pyridin-3-yl)imidazo[1,2-a]pyridin-2-yl)-3,3-dimethylbutanamide]	3000 to 10000 nM
CC(C)(C)CC(=O)Nc1nc2ccc(F)cn2c1-c1ccc(F)nc1 [Compound 349, N-(6-fluoro-3-(6-fluoropyridin-3-yl)imidazo[1,2-a]pyridin-2-yl)-3,3-dimethylbutanamide]	500 to 3000 nM
CC(C)(C)CC(=O)Nc1nc2ccc(F)cn2c1-c1ccc(C#N)nc1 [Compound 350, N-(3-(6-cyanopyridin-3-yl)-6-fluoroimidazo[1,2-a]pyridin-2-yl)-3,3-dimethylbutanamide]	500 to 3000 nM
CC(C)(C)CC(=O)Nc1nc2ccc(F)cn2c1-c1ccncc1 [Compound 351, N-(6-fluoro-3-(pyridin-4-yl)imidazo[1,2-a]pyridin-2-yl)-3,3-dimethylbutanamide]	3000 to 10000 nM
CC(C)(C)CC(=O)Nc1nc2ccc(F)cn2c1-c1ccc(F)cn1 [Compound 352, N-(6-fluoro-3-(5-fluoropyridin-2-yl)imidazo[1,2-a]pyridin-2-yl)-3,3-dimethylbutanamide]	500 to 3000 nM
CC(C)(C)CC(=O)Nc1nc2ccc(F)cn2c1-c1ccc(C#N)cn1 [Compound 354, N-(3-(5-cyanopyridin-2-yl)-6-fluoroimidazo[1,2-a]pyridin-2-yl)-3,3-dimethylbutanamide]	3000 to 10000 nM
CC(C)(C)CC(=O)Nc1nc2ccc(F)cn2c1-c1cncc(C(F)(F)F)c1 [Compound 355, N-(6-fluoro-3-(5-(trifluoromethyl)pyridin-3-yl)imidazo[1,2-a]pyridin-2-yl)-3,3-dimethylbutanamide]	3000 to 10000 nM
Cc1ccc(-c2c(N(C(=O)CC(C)(C)C)C(=O)CC(C)(C)C)nc3ccc(F)cn23)nc1 [Compound 356, N-(3,3-dimethylbutanoyl)-N-(6-fluoro-3-(5-methylpyridin-2-yl)imidazo[1,2-a]pyridin-2-yl)-3,3-dimethylbutanamide]	3000 to 10000 nM
CC(C)(C)CC(=O)N(C(=O)CC(C)(C)C)c1nc2ccc(F)cn2c1-c1cccc(C(F)(F)F)n1 [Compound 357, N-(3,3-dimethylbutanoyl)-N-(6-fluoro-3-(6-(trifluoromethyl)pyridin-2-yl)imidazo[1,2-a]pyridin-2-yl)-3,3-dimethylbutanamide]	3000 to 10000 nM
CC(C)(C)CC(=O)N(C(=O)CC(C)(C)C)c1nc2ccc(F)cn2c1-c1nc2ccccc2s1 [Compound 358, N-(3-(benzo[d]thiazol-2-yl)-6-fluoroimidazo[1,2-a]pyridin-2-yl)-N-(3,3-dimethylbutanoyl)-3,3-dimethylbutanamide]	3000 to 10000 nM
Cc1ccc(-c2c(NC(=O)CC(C)(C)C)nc3ccc(F)cn23)nc1 [Compound 359, N-(6-fluoro-3-(5-methylpyridin-2-yl)imidazo[1,2-a]pyridin-2-yl)-3,3-dimethylbutanamide]	500 to 3000 nM
CC(C)(C)CC(=O)Nc1nc2ccc(F)cn2c1-c1cccc(C(F)(F)F)n1 [Compound 361, N-(6-fluoro-3-(6-(trifluoromethyl)pyridin-2-yl)imidazo[1,2-a]pyridin-2-yl)-3,3-dimethylbutanamide]	< 500 nM
CC(C)(C)CC(=O)Nc1nc2ccc(F)cn2c1-c1ncccn1 [Compound 362, N-(6-fluoro-3-(pyrimidin-2-yl)imidazo[1,2-a]pyridin-2-yl)-3,3-dimethylbutanamide]	3000 to 10000 nM
CC(C)(C)CC(=O)Nc1nc2ccc(F)cn2c1-c1cc(Cl)ccn1 [Compound 364, N-(3-(4-chloropyridin-2-yl)-6-fluoroimidazo[1,2-a]pyridin-2-yl)-3,3-dimethylbutanamide]	500 to 3000 nM
Cc1ccnc(-c2c(NC(=O)CC(C)(C)C)nc3ccc(F)cn23)c1 [Compound 365, N-(6-fluoro-3-(4-methylpyridin-2-yl)imidazo[1,2-a]pyridin-2-yl)-3,3-dimethylbutanamide]	500 to 3000 nM
COc1cccc(-c2c(NC(=O)CC(C)(C)C)nc3ccc(F)cn23)n1 [Compound 367, N-(6-fluoro-3-(6-methoxypyridin-2-yl)imidazo[1,2-a]pyridin-2-yl)-3,3-dimethylbutanamide]	500 to 3000 nM
CC(C)C(C)C(=O)Nc1nc2ccc(F)cn2c1-c1ccc(F)cn1 (stereo not shown) [Compound 368, N-(6-fluoro-3-(5-fluoropyridin-2-yl)imidazo[1,2-a]pyridin-2-yl)-2,3-dimethylbutanamide]	3000 to 10000 nM
CC(CC(=O)Nc1nc2ccc(F)cn2c1-c1ccc(F)cn1)C(F)(F)F (stereo not shown) [Compound 369, 4,4,4-trifluoro-N-(6-fluoro-3-(5-fluoropyridin-2-yl)imidazo[1,2-a]pyridin-2-yl)-3-methylbutanamide]	3000 to 10000 nM
CC(C)n1cc(-c2c(NC(=O)CC(C)(C)C)nc3ccc(F)cn23)cn1 [Compound 370, N-(6-fluoro-3-(1-isopropyl-1H-pyrazol-4-yl)imidazo[1,2-a]pyridin-2-yl)-3,3-dimethylbutanamide]	3000 to 10000 nM
CC(C)(C)CCC(=O)Nc1nc2ccc(F)cn2c1-c1nc2ccccc2s1 [Compound 372, N-(3-(benzo[d]thiazol-2-yl)-6-fluoroimidazo[1,2-a]pyridin-2-yl)-4,4-dimethylpentanamide]	500 to 3000 nM
CC(C)C(C)C(=O)Nc1nc2ccc(F)cn2c1-c1nc2ccccc2s1 (stereo not shown) [Compound 373, N-(3-(benzo[d]thiazol-2-yl)-6-fluoroimidazo[1,2-a]pyridin-2-yl)-2,3-dimethylbutanamide]	3000 to 10000 nM
CC(CC(=O)Nc1nc2ccc(F)cn2c1-c1nc2ccccc2s1)C(F)(F)F (stereo not shown) [Compound 374, N-(3-(benzo[d]thiazol-2-yl)-6-fluoroimidazo[1,2-a]pyridin-2-yl)-4,4,4-trifluoro-3-methylbutanamide]	3000 to 10000 nM
CC1(CC(=O)Nc2nc3ccc(F)cn3c2-c2nc3ccccc3s2)CCCC1 [Compound 375, N-(3-(benzo[d]thiazol-2-yl)-6-fluoroimidazo[1,2-a]pyridin-2-yl)-2-(1-methylcyclopentyl)acetamide]	< 500 nM
CC(C)(C)CC(=O)Nc1nc2ccc(C(F)(F)F)cn2c1-c1nc2ccccc2s1 [Compound 376, N-(3-(benzo[d]thiazol-2-yl)-6-(trifluoromethyl)imidazo[1,2-a]pyridin-2-yl)-3,3-dimethylbutanamide]	< 500 nM
CC(C)(C)CC(=O)Nc1nc2ccc(F)cn2c1-c1nccc(C(F)(F)F)n1 [Compound 377, N-(6-fluoro-3-(4-(trifluoromethyl)pyrimidin-2-yl)imidazo[1,2-a]pyridin-2-yl)-3,3-dimethylbutanamide]	3000 to 10000 nM
O=C(Nc1nc2ccc(F)cn2c1-c1nc2ccccc2s1)C1CCCC1 [Compound 378, N-(3-(benzo[d]thiazol-2-yl)-6-fluoroimidazo[1,2-a]pyridin-2-yl)cyclopentanecarboxamide]	3000 to 10000 nM
